Measured values published in patent US20230042917A1, “DIRECT REPROGRAMMING OF SOMATIC CELLS INTO MYOGENIC CELLS” (THE GENERAL HOSPITAL CORPORATION, priority 2016, published 2023).

Test system: MEFs expressing MyoD
Assay: Reprogramming of MyoD-expressing MEFs with small molecules (myotubes, proliferative cells, contraction, Pax7 staining)
Assay type: cell-based, mouse
Conditions: for formation of MyHC+, polynucleated myotubes / generation of proliferative cells: Knockout DMEM, 10% KOSR, 10% FBS, 10 ng/ml bFGF
From the text: A doxycycline (dox) inducible lentiviral system (tetOP-MyoD) was engineered, allowing for inducible and reversible activation of MyoD in target cells. […] The myogenic identity of converted cells was confirmed by immunofluorescence staining for the differentiation marker myosin heavy chain (MyHC), which was absent in uninfected MEFs (FIG. 14C).
MEFs undergoing MyoD-induced lineage conversion were exposed to various small molecules and cytokines in an attempt to induce reprogramming into a proliferative, myogenic progenitor-like cell state in addition to mature myotubes (FIG. 14A, bottom row). Specifically, compounds including the GSK3β inhibitor CHIR99021 (abbreviated as “G”) and the TGF-01 receptor inhibitor RepSox (abbreviated as “R”) were used. In addition, the effect of the cyclic AMP agonist Forskolin (abbreviated as “F”), which reportedly facilitates the transient expansion of satellite cells in vitro was tested. These compounds were added individually or combinatorially to MEFs expressing MyoD and cultured in Knockout DMEM media containing 10% KOSR and 10% FBS and supplemented with 10 ng/ml bFGF, which promotes satellite cell and myoblast growth. […] Cultures treated with these small molecules typically assembled into three-dimensional colonies with emanating myotubes and numerous small, round cells that seem to be muscle progenitors (FIG. 14B and live video monitoring was used to monitor the muscle progenitors). KOSR media contains ascorbic acid, which enhances reprogramming into iPSCs by modulating epigenetic regulators. To determine whether ascorbic acid is required for the induction of these proliferative, putative progenitor cells using our culture system, MEFs expressing MyoD were exposed to F/R in the presence or absence of ascorbic acid using DMEM media containing FBS and bFGF but lacking KOSR.
To assess the temporal requirement for exogenous MyoD expression and small molecules during the establishment and maintenance of our progenitor-like cell population, infected MEFs were treated with dox for 0, 2, 4, 6, 8 or 10 days in the presence of F/R, followed by 5 days of dox withdrawal before scoring for colonies that proliferated and contracted (FIG. 14G). […] By contrast, continuous exposure of cultures to F/R was required to maintain these cultures upon passaging (FIG. 14G and data not shown). Thus, without being bound by any particular theory, small molecules and growth factors collaborate with transient MyoD expression to endow MEFs with a myogenic progenitor-like state. These cells are provisionally termed “induced myogenic progenitor cells” (iMPCs).
Mouse embryonic fibroblasts (MEFs), Tail-tip fibroblasts (TTFs) and the commercial myoblast cell line C2C12 (ATCC®CRL-1772™) were cultured in “MEF medium” containing DMEM (ThermoFisher Scientific, catalog number 10313-021), supplemented with 10% Fetal Bovine Serum (FBS) (HyClone catalog number SH30396.03), 1% GlutaMAX (ThermoFisher Scientific, catalog number 35050061), 1% non-essential amino acids (ThermoFisher Scientific, catalog number 11140050), 1% penicillin-streptomycin (ThermoFisher Scientific, catalog number 15140122), 0.5% β-mercaptoethanol (ThermoFisher Scientific, catalog number 21985-023). Freshly isolated satellite cells and derivative myoblasts were cultured using a 1:1 ratio of DMEM and F-10 (1×) Nutrient mix (ThermoFisher Scientific, catalog number 11550-043) supplemented with 10% horse serum (ThermoFisher Scientific, catalog number 16050-122), 20% FBS (HyClone catalog number SH30396.03) and […] basic-FGF (R&D 233-FB). Satellite cells and myoblasts were cultured on plates coated with Matrigel Basement Membrane Matrix (Catalog number 356237, Corning). […]

Row | SMILES | Pax7+ cells (immunofluorescence) (MEFs expressing MyoD, in the presence of KOSR or ascorbate) | formation of MyHC+, polynucleated myotubes (MEFs expressing MyoD) | generation of proliferative cells (MEFs expressing MyoD) | generation of proliferative cells and contracting myotubes (MEFs expressing MyoD exposed to F/R, DMEM with FBS and bFGF lacking KOSR) | Pax7+ iMPC formation after withdrawal of SR (MyoD + FR, medium without serum replacement)
1 | Cc1c[nH]c(-c2cnc(NCCNc3ccc(C#N)cn3)nc2-c2ccc(Cl)cc2Cl)n1 [G, CHIR99021] | only in the presence of FR | increased | did not generate any proliferative cells | – | –
2 | Cc1cccc(-c2n[nH]cc2-c2ccc3ncccc3n2)n1 [R, 2-3[(6-methyl-2-pyridinyl)-1H-pyrazol-4-yl]-1,5-napthyridine] | – | increased | did not generate any proliferative cells | – | –
3 | O=C1O[C@H]([C@@H](O)CO)C(O)=C1O [ascorbic acid] | – | – | – | depended on ascorbic acid | partially rescues this phenotype
